According to patent US11026945B2, “Protein kinase RNA-like endoplasmic reticulum kinase (PERK) inhibitors for prevention and/or treatment of lung injury and/or inflammation” (THE TRUSTEES OF THE UNIVERSITY OF PENNSYLVANIA, priority 2016, dated 2021):

System: AEC-I monolayers
Experiment: Stretch-induced cell death, ethidium homodimer staining
Type: cell-based, rat
Conditions: stretched monolayers, 1 μM PI pretreatment
Description: To assess the effect of ISR inhibition on stretch-induced cell death, dead to live cell ratio was quantified with triple Ethidium homodimer (dead cells)-Calcinein (live cells) and nuclear (DAPI) stain (Thermo Fisher Scientific). Fluorescent light emission from cells was captured with fluorescent microscopy and quantified in the same fashion as described in the “Mechanical stretch activates ISR and cell death in AEC-I” section. N=30 rats were used to obtain data from N=5 biological replicates/condition for each treatment group. Data was expressed as the number of dead cells per total cells as depicted in FIG. 3G. […]
To measure permeability, the silastic membranes were coated with biotinylated fibronectin and cells were cultured on the apical surface. […] Light emission at 488 nm was measured for monolayers using fluorescent microscopy (Nikon TE300, Melville, N.Y.). […] The emitted fluorescence is proportional to the monolayer damage caused by stretch and is detectable by fluorescent microscopy. […] The maximum pixel intensity in the background of unstretched-untreated monolayers was measured and used as a threshold to exclude unstained regions. The percentage of each image area above the threshold intensity was determined and then divided by the value for the unstretched control group to calculate the normalized area percentage (nArea) of each image. […] Data were expressed as ±SEM. […]

Cn1cc(-c2ccc3c(c2)CCN3C(=O)Cc2cccc(C(F)(F)F)c2)c2c(N)ncnc21 [PI, 1-[5-(4-Amino-7-methyl-7H-pyrrolo[2,3-d]pyrimidin-5-yl)indolin-1-yl]-2-(3-trifluoromethylphenyl)ethanone]
stretch-induced cell death: decreased
